Results from ChEMBL document CHEMBL1201862, “PubChem BioAssay data set” (2004).
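A five-concentration, 48-hour dose response in 96-well plates underlies each endpoint, interpolated linearly between surrounding concentrations. Abbreviation: GI50, concentration required for 50% inhibition of growth.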 Activity calls are given as the source filed them. Rule as the data show it: active = GI50 up to about 1.1 µM and inactive = higher.

Key:
Assay in all cases: inhibition of tumour cell growth, NCI panel, 48 h
[1] = tested on: A498
[2] = tested on: A549
[3] = tested on: ACHN
[4] = tested on: HCC 2998
[5] = tested on: HL-60
[6] = tested on: K562
[7] = tested on: M14
[8] = tested on: NCI-H23
[9] = tested on: OVCAR-3
[10] = tested on: OVCAR-4
[11] = tested on: OVCAR-8
[12] = tested on: SF-539
[13] = tested on: SK-MEL-28
[14] = tested on: SK-MEL-5
[15] = tested on: SK-OV-3
[16] = tested on: SNB-19
[17] = tested on: UACC-257
[18] = tested on: UACC-62
[19] = tested on: UO-31

| SMILES | GI50 [1] | GI50 [2] | GI50 [3] | GI50 [4] | GI50 [5] | GI50 [6] | GI50 [7] | GI50 [8] | GI50 [9] | GI50 [10] | GI50 [11] | GI50 [12] | GI50 [13] | GI50 [14] | GI50 [15] | GI50 [16] | GI50 [17] | GI50 [18] | GI50 [19] |
| --- | --- | --- | --- | --- | --- | --- | --- | --- | --- | --- | --- | --- | --- | --- | --- | --- | --- | --- | --- |
| CSc1nc2c(c(O)c(C)c(=O)n2C2OC(COC(C)=O)C(OC(C)=O)C(OC(C)=O)C2OC(C)=O)c(=O)n1C (centres undefined) | > 100 µM (inactive) | > 100 µM (inactive) | > 100 µM (inactive) | > 100 µM (inactive) | > 100 µM (inactive) | > 100 µM (inactive) | > 100 µM (inactive) | > 100 µM (inactive) | > 100 µM (inactive) | > 100 µM (inactive) | > 100 µM (inactive) | > 100 µM (inactive) | > 100 µM (inactive) | > 100 µM (inactive) | > 100 µM (inactive) | > 100 µM (inactive) | > 100 µM (inactive) | > 100 µM (inactive) | > 77.4 µM (inactive) |
| O=C1c2cccc3cc([N+](=O)[O-])cc(c23)C(=O)N1NC1=NCCN1 | > 100 µM (inactive) | > 100 µM (inactive) | > 100 µM (inactive) | > 100 µM (inactive) | > 100 µM (inactive) | > 100 µM (inactive) | > 100 µM (inactive) | > 100 µM (inactive) | > 100 µM (inactive) | > 100 µM (inactive) | > 100 µM (inactive) | > 100 µM (inactive) | > 100 µM (inactive) | > 100 µM (inactive) | > 100 µM (inactive) | > 100 µM (inactive) | > 100 µM (inactive) | > 100 µM (inactive) | > 100 µM (inactive) |
| N=c1c2ccccc2nc2oc3ccccc3n12 | 38.7 µM (inactive) | 33.8 µM (inactive) | 30.5 µM (inactive) | > 100 µM (inactive) | > 100 µM (inactive) | > 100 µM (inactive) | – | 35.2 µM (inactive) | > 10 µM (inactive) | 29 µM (inactive) | 37.5 µM (inactive) | 37.2 µM (inactive) | > 10 µM (inactive) | 15.5 µM (inactive) | 40.6 µM (inactive) | 25.5 µM (inactive) | 68.1 µM (inactive) | 28.6 µM (inactive) | > 100 µM (inactive) |
| C=C(C)[C@H](O)C(O)CC(C)[C@@H]1CCC23CC12CCC1[C@@]2(C)CCC(OC(C)=O)C(C)(C)C2CC(OC2OC(COC(C)=O)C(O)C(O)C2O)[C@]13C (some centres undefined) | 7.98 µM (inactive) | 6.21 µM (inactive) | 6.61 µM (inactive) | 6.35 µM (inactive) | 1.62 µM (inactive) | 2.42 µM (inactive) | 3.41 µM (inactive) | 7.59 µM (inactive) | 5.83 µM (inactive) | 7.71 µM (inactive) | 6.47 µM (inactive) | 6.67 µM (inactive) | 7.19 µM (inactive) | – | 8 µM (inactive) | 5.9 µM (inactive) | 6.01 µM (inactive) | 3.84 µM (inactive) | 8.18 µM (inactive) |
| CN1CC(=O)N(C)c2[nH]cnc2C1=O | > 100 µM (inactive) | > 100 µM (inactive) | > 100 µM (inactive) | > 100 µM (inactive) | > 100 µM (inactive) | > 100 µM (inactive) | > 100 µM (inactive) | > 100 µM (inactive) | > 100 µM (inactive) | > 100 µM (inactive) | > 100 µM (inactive) | > 100 µM (inactive) | > 100 µM (inactive) | > 100 µM (inactive) | > 100 µM (inactive) | > 100 µM (inactive) | – | > 100 µM (inactive) | > 100 µM (inactive) |
| O=C1c2ccc3c4ccccc4n(-c4ccccc4)c3c2C(=O)N1c1ccc(Cl)cc1 | > 100 µM (inactive) | > 100 µM (inactive) | > 100 µM (inactive) | > 100 µM (inactive) | > 100 µM (inactive) | > 100 µM (inactive) | > 100 µM (inactive) | 8.95 µM (inactive) | > 100 µM (inactive) | > 100 µM (inactive) | > 100 µM (inactive) | > 100 µM (inactive) | – | > 100 µM (inactive) | > 100 µM (inactive) | > 100 µM (inactive) | > 100 µM (inactive) | > 100 µM (inactive) | > 100 µM (inactive) |
| CN(C)c1ccc(Cc2cc(C(C)(C)C)cc(C(C)(C)C)c2O)cc1 | 18.2 µM (inactive) | 19.8 µM (inactive) | 16.6 µM (inactive) | 19.6 µM (inactive) | 21 µM (inactive) | 11.7 µM (inactive) | 18.1 µM (inactive) | 16.1 µM (inactive) | – | 21.3 µM (inactive) | 20 µM (inactive) | 20.8 µM (inactive) | 20.3 µM (inactive) | 15.6 µM (inactive) | 29.3 µM (inactive) | 21.6 µM (inactive) | 15.6 µM (inactive) | 14.7 µM (inactive) | 17.2 µM (inactive) |
| N=C(NC(=S)N1CCCCC1)N1CCCCC1 | > 100 µM (inactive) | > 100 µM (inactive) | > 100 µM (inactive) | > 100 µM (inactive) | > 100 µM (inactive) | > 100 µM (inactive) | > 100 µM (inactive) | > 100 µM (inactive) | – | > 100 µM (inactive) | > 100 µM (inactive) | > 100 µM (inactive) | > 100 µM (inactive) | > 100 µM (inactive) | > 100 µM (inactive) | > 100 µM (inactive) | > 100 µM (inactive) | > 100 µM (inactive) | > 100 µM (inactive) |
| CCN(CC)CCOc1ccc(C(=C2CCCCC2)c2ccc(OCCN(CC)CC)cc2)cc1 | 1.78 µM (inactive) | 1.62 µM (inactive) | 1.75 µM (inactive) | 1.3 µM (inactive) | 0.299 µM (active) | 0.267 µM (active) | 1.55 µM (inactive) | 1.86 µM (inactive) | 1.72 µM (inactive) | 2.31 µM (inactive) | 1.73 µM (inactive) | 1.55 µM (inactive) | 1.32 µM (inactive) | 1.58 µM (inactive) | 1.87 µM (inactive) | 1.73 µM (inactive) | 1.87 µM (inactive) | – | 1.59 µM (inactive) |
| CCN(CC)CCCCC1CCN(CC(=O)N2CC(C)C(=O)Nc3ccccc32)CC1 (centres undefined) | > 100 µM (inactive) | > 100 µM (inactive) | > 100 µM (inactive) | > 100 µM (inactive) | > 100 µM (inactive) | > 100 µM (inactive) | > 100 µM (inactive) | > 100 µM (inactive) | > 100 µM (inactive) | > 100 µM (inactive) | – | – | > 100 µM (inactive) | > 100 µM (inactive) | > 100 µM (inactive) | > 100 µM (inactive) | > 100 µM (inactive) | > 100 µM (inactive) | > 100 µM (inactive) |
| CC1(C)CC(N(C(=O)/C=C/c2ccc([N+](=O)[O-])o2)C2CCCCC2)CC(C)(C)N1 | 16.2 µM (inactive) | 15 µM (inactive) | 12.8 µM (inactive) | 11.3 µM (inactive) | 2.21 µM (inactive) | – | 2.82 µM (inactive) | 9.46 µM (inactive) | 12.3 µM (inactive) | 10.4 µM (inactive) | 5.2 µM (inactive) | 9.86 µM (inactive) | 12.5 µM (inactive) | 10.2 µM (inactive) | 28.6 µM (inactive) | 13.1 µM (inactive) | 11.1 µM (inactive) | 10 µM (inactive) | 12.2 µM (inactive) |
